Measurements reported in PubChem BioAssay (NCI).
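Protocol summary: plate cells (96-well), add compound at 5 concentrations, incubate 48 h, interpolate endpoints linearly. TGI is the concentration that stops growth completely.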

Columns and labels:
Assay in all cases: NCI-60 cell line screen, 48 h
786-0 renal = tested on: 786-0 renal
A498 renal = tested on: A498 renal
CAKI-1 renal = tested on: CAKI-1 renal
HOP-62 NSCLC = tested on: HOP-62 NSCLC
K-562 leukemia = tested on: K-562 leukemia
MALME-3M melanoma = tested on: MALME-3M melanoma
MCF7 breast = tested on: MCF7 breast
MDA-MB-435 = tested on: MDA-MB-435
NCI-H23 lung = tested on: NCI-H23 lung
NCI-H460 lung = tested on: NCI-H460 lung
NCI-H522 lung = tested on: NCI-H522 lung
OVCAR-3 ovarian = tested on: OVCAR-3 ovarian
PC-3 prostate = tested on: PC-3 prostate
RXF 393 renal = tested on: RXF 393 renal
SK-MEL-2 melanoma = tested on: SK-MEL-2 melanoma
SK-MEL-5 melanoma = tested on: SK-MEL-5 melanoma
SW-620 colon = tested on: SW-620 colon
UO-31 renal = tested on: UO-31 renal

Compound	TGI (786-0 renal) [µM]	TGI (A498 renal) [µM]	TGI (CAKI-1 renal) [µM]	TGI (HOP-62 NSCLC) [µM]	TGI (K-562 leukemia) [µM]	TGI (MALME-3M melanoma) [µM]	TGI (MCF7 breast) [µM]	TGI (MDA-MB-435) [µM]	TGI (NCI-H23 lung) [µM]	TGI (NCI-H460 lung) [µM]	TGI (NCI-H522 lung) [µM]	TGI (OVCAR-3 ovarian) [µM]	TGI (PC-3 prostate) [µM]	TGI (RXF 393 renal) [µM]	TGI (SK-MEL-2 melanoma) [µM]	TGI (SK-MEL-5 melanoma) [µM]	TGI (SW-620 colon) [µM]	TGI (UO-31 renal) [µM]
CCN(CC)C1Oc2cc3c(cc2C(c2ccc(OC)cc2)C1C)OCO3 (stereo unspecified)	48	48.2	76.4	54.9	45.9	37.3	47.7	39.1	51	37.2	35.8	37.1	72.6	40.6	38.6	31.9	> 100	64.9
COC(=O)C(Cc1c[nH]c2ccccc12)N=C1Nc2ccncc2S(=O)(=O)N1c1ccccc1 (stereo unspecified)	> 100	> 100	> 100	> 100	51.8	40.5	> 100	87.3	> 100	> 100	> 100	99.5	54	56.8	68.5	30	99.3	> 100
CC(=O)C(=[N+]=[N-])C(=O)NCC#N	> 10	> 10	> 10	> 10	> 10	> 10	> 10	> 10	> 10	> 10	> 10	> 10	> 10	> 10	> 10	> 10	> 10	> 10
O=C1C(=O)c2c(oc(=O)c3ccccc23)-c2ccccc21	> 25	> 25	> 25	> 25	> 25	> 25	> 25	20.9	> 25	> 25	> 25	> 25	> 25	> 25	> 25	> 25	> 25	> 25
CN(C)c1ccc(/C=N\NC(=O)c2ccccc2Nc2ccccc2C(=O)N/N=C/c2ccc(N(C)C)cc2)cc1	> 100	> 100	> 100	> 100	> 100	98	> 100	> 100	> 100	> 100		> 100	> 100	> 100	> 100	> 100	> 100	> 100
C=C(Cl)c1c(OC)cccc1OCc1ccccc1	> 100	> 100	> 100	> 100	> 100	> 100	> 100	> 100	> 100	> 100	> 100	> 100	> 100	51.9	> 100	> 100	> 100	> 100
CO[C@H]1c2cccc3cccc(c23)[C@@H]1n1[nH]c(=O)n(C(C)(C)C)c1=O	> 100	> 100	> 100		> 100	> 100	> 100	> 100	> 100	> 100	> 100	> 100	> 100	> 100	> 100		> 100	> 100
CC1=NN(C(=O)CC(=O)Nc2ccc(C)cc2)C(=O)C1N=Nc1ccc(C(=O)O)cc1 (stereo unspecified)	> 100	> 100	> 100	> 100	> 100	> 100	> 100	> 100	> 100		> 100	> 100	> 100	> 100	> 100	> 100	> 100	> 100
c1ccc2c(C3CCN(CCN4CCOCC4)C3)c[nH]c2c1 (stereo unspecified)	> 100	> 100	> 100	> 100	> 100	> 100	> 100	> 100	> 100	> 100	> 100	> 100	> 100	> 100	> 100	> 100	> 100	> 100
CCOC(=O)C1=CN/C(=C(/C)C(=O)OC)SC1C(=O)OCC (stereo unspecified)	> 100	> 100	> 100	> 100	> 31.6	> 100	> 100	> 100	> 100	> 100	> 100	> 100	> 100	> 100	> 100	> 100	> 100	> 100
O=C(N/N=C/c1ccc2c(c1)OCO2)Nc1ccccc1Cl	> 55	35.6	> 100	> 100	> 100	56.2	> 100	1.33	> 43.8	16.6	1.1	2.82	> 100	12.2	25.2	15.3	> 100	> 100
ClC1(Cl)C(c2ccccc2)C1c1ccccc1 (stereo unspecified)	> 100	> 100	75.9	> 100	> 100		> 100	68.6	76.8	51.2		87.8	> 100	37.8	40.2		> 100	> 100
COC(=O)C1=C(O)C(C(=O)OC)[C@]2(O)[C@H](C(=O)OC)[C@H]1C[C@@H](c1ccc(F)cc1)[C@H]2C(=O)OC (stereo partly specified)	32	35.1	> 100	68.5	> 100	28	> 100	61	31	63.1		35.5	33.2	26.5	19	25.2	53.4	29.1
CNc1c2cccc(C)c2nc2c(C(=O)NCCN(C)C)cccc12	1.47	0.935	0.23	0.578	> 100	0.692	0.96	0.34	0.286	0.206	0.109	1.05	0.88	0.413	0.996	0.593	0.424	2.49
OC1(CCc2ccccc2)COC(C(F)(F)F)(C(F)(F)F)C1 (stereo unspecified)	> 100	> 100	> 100	> 100	> 100	> 100	> 100	> 100	> 100	> 100	> 100	> 100	> 100	> 100	> 100	> 100	> 100	> 100
Cc1cc([C@H](C#N)c2nc3ccccc3[nH]2)nc(Cl)n1	> 100	> 100	> 100		> 100	> 100	> 100	> 100	> 100	63.5			> 100	> 100	> 100	> 100	> 100	> 100
CC(=O)O[C@@H]1CC[C@@]2(C)C(CC[C@H]3[C@@H]4CC[C@H]([C@H](C)CCc5nc6ccc(C)cc6[nH]5)[C@@]4(C)CC[C@@H]32)C1 (stereo partly specified)	> 100	> 100	> 100	> 100	> 100		> 100	> 100	> 100		> 100	> 100	> 100	> 100	> 100	> 100	> 100	> 100
CSc1nc(C)c2c(n1)SCC2	> 10	> 10	> 10	> 10	> 10	> 10	> 10	> 10	> 10	> 10		> 10	> 10	> 10		> 10	> 10	> 10
COc1cccc(OC/C(N=Cc2cccnc2)=N/NC(=O)c2ccncc2)c1	> 100	> 100	> 100	> 100	> 100	> 100	> 100	> 100	> 100	> 100	> 100	> 100	> 100	> 100	> 100		> 100	
O=C1CC(CC(O)[C@@H]2CCCC[C@@H]2O)CC(=O)N1c1ccccc1 (stereo partly specified)	> 100	> 100	> 100	> 100	> 100	> 100	> 100	> 100	> 100	> 100	> 100	> 100	> 100	> 100		> 100	> 100	> 100
O=C1CC(=O)NC(=NN2C(=O)/C(=C/C(=O)c3ccco3)N=C2c2ccccc2)N1	> 100	> 100	> 100	> 100		> 100	> 100	> 100	> 100	> 100	79.8	> 100	> 100	> 100	> 100		> 100	> 100
Cc1c(C)c2c(c(N)c1C#N)C(=O)N(CCc1ccccc1)C2=O	> 100	> 100	> 100		> 100	> 100	> 100	> 100		> 100	> 100	> 100	> 100	> 100	> 100	> 100	> 100	> 100
COC(=O)c1c(O)ccc2c1c1c(n2Cc2ccccc2)C(=O)c2ccccc2C1=O	32.1		36.9	38.8	36.3	54.7	35	28	31.6	59.8	23.8	47.5	29.4	37	27.7	31.9	46	22.1
COc1cc(/C=C(\C#N)c2nc3ccccc3o2)ccc1O	66.4	34.8	45.9	52.8	> 100	56.3	> 100	41.6	70	48.4	27.8	40.9	66.4	> 100	47.3	36.3		85.9
N#CC(C#N)N=Cc1ccncc1	> 100	> 100	> 100	> 100	> 100	> 100	> 100	> 100	> 100			> 100	> 100	> 100	> 100	> 100	> 100	
CN(C)C=Nc1cccc2nsnc12	> 100	> 100	> 100	> 100	> 100	> 100	> 100	> 100	> 100		> 100	> 100	> 100	> 100	> 100	> 100		> 100
OC(CCN1CCCCC1)(c1ccccc1)c1ccccc1	> 100	> 100	> 100	> 100	> 100	> 100	> 100	> 100	> 100		> 100	> 100	> 100	> 100	> 100	> 100	> 100	> 100
